The values below come from US20100016242A1, “MYOSIN LIGHT CHAIN KINASE INHIBITORS AND METHODS OF USE” (THE UNIVERSITY OF CHICAGO, priority 2004, published 2010).

The nature of data set [1]: stability in Caco-2 intestinal epithelial cell extracts (LC-MS). The format is in vitro ADME. The following applies: Caco-2 cell extracts. The procedure: Peptides administered in vivo are susceptible to protease cleavage, particularly those administered to the intestine. PIK, D-PIK, D-PIK(reversed) and D-PIK(int.) were each incubated with rat intestinal fluid and also with Caco-2 intestinal epithelial cell extracts, which contain a mixture brush border and cytosolic proteases. Luminal intestinal secretions were obtained by flushing isolated rat intestines (duodenum to ileum) with 10 ml of 20 mM of N-2-Hydroxyethylpiperazine-N′-2-ethanesulfonic acid (HEPES) buffer, pH 7.4. Discharged contents were centrifuged to remove solids and the supernatant filtered through a 0.20 μm filter prior to determining total protein content. Confluent Caco-2 cells were rinsed with PBS, lifted by brief trypsin treatment into a small volume of Dulbecco's modified Eagles's medium (DMEM) and washed twice with phosphate buffered saline (PBS). […] Protein concentrations of isolated intestinal fluid and lysed Caco-2 cell extracts were determined using the Bio-Rad Protein Assay. […] Samples were centrifuged and supernatants analyzed by LC-MS analysis to determine the cleavage pattern of PIK.
(§1) Residual peptide content was assessed by liquid chromatography-mass spectrometry (Tiller et al., Anal Bioanal Chem 2003; 377:788-802) and positive ion electrospray ionization.

Data set [2] in a line: stability in rat intestinal fluid (LC-MS). Type of data set: in vitro ADME. The procedure:
Peptides administered in vivo are susceptible to protease cleavage, particularly those administered to the intestine. PIK, D-PIK, D-PIK(reversed) and D-PIK(int.) were each incubated with rat intestinal fluid and also with Caco-2 intestinal epithelial cell extracts, which contain a mixture brush border and cytosolic proteases. Luminal intestinal secretions were obtained by flushing isolated rat intestines (duodenum to ileum) with 10 ml of 20 mM of N-2-Hydroxyethylpiperazine-N′-2-ethanesulfonic acid (HEPES) buffer, pH 7.4. Discharged contents were centrifuged to remove solids and the supernatant filtered through a 0.20 μm filter prior to determining total protein content. Confluent Caco-2 cells were rinsed with PBS, lifted by brief trypsin treatment into a small volume of Dulbecco's modified Eagles's medium (DMEM) and washed twice with phosphate buffered saline (PBS). The final cell pellet was re-suspended in a small volume of lysis buffer (50 mM Tris-HCL, 2 mM EDTA, 20% glycerol at pH 7.4) and sonicated on ice. Protein concentrations of isolated intestinal fluid and lysed Caco-2 cell extracts were determined using the Bio-Rad Protein Assay. Peptide inhibitors of MLCK (1 mg/ml) in PBS were mixed with 0.1 mg protein of intestinal secretions or Caco-2 cell lysate on ice and incubated for at 4° C. and 37° C., respectively. At selected times, 100 μl aliquots were withdrawn and mixed with an equal volume of 0.5% TFA (in 50/50 water/acetonitrile) to terminate enzymatic reactions. Samples were centrifuged and supernatants analyzed by LC-MS analysis to determine the cleavage pattern of PIK.
as §1
The peptides listed in Table 2 (0.1 mg) were incubated with rat intestinal fluid (0.2 mg) at 37° C. for 0.5 min to 6 hours.

As usually defined, the half-life is the time needed for the level to fall by half in the phase considered. A low value points to fast loss. For the substance “Ac-RKKYKYRRK-NH2 [PIK, Arg-Lys-Lys-Tyr-Lys-Tyr-Arg-Arg-Lys]”, the cleavage pattern result in data set [1] is recorded as “cleaved PIK across the central palindromic sequence”. The same substance gave a half-life in data set [2] (0.1 mg peptide, rat intestinal fluid (0.2 mg), 37° C.) of 12 s. Moreover, the initial cleavage pattern entry in data set [2] (rat intestinal fluid) was “peptide bonds at the C-terminal sides of K and R residues of PIK were initially cleaved”. In addition, the “hydrolysis on extended incubation” value in data set [2] (rat intestinal fluid, extended incubations) is on record as “total hydrolysis”.
